Calls of active or inactive are those of the source. No cut-off for these calls is given here.
Key:
[1] = tested on: SK-MEL-2; assay: Antiproliferative activity against human SK-MEL-2 cells assessed as inhibition of cell growth; assay type: functional, cell-based
[2] = Cytotoxicity against human C-28/I2 cells; assay type: toxicity, cell-based
[3] = tested on: A-375; assay: Antiproliferative activity against human A-375 cells assessed as inhibition of cell growth measured after 72 hrs by CCK8 assay; assay type: functional, cell-based; conditions: A-375, 72 h
[4] = tested on: A-375; assay: Cytotoxicity against human A-375 cells assessed as inhibition of cell growth; assay type: functional, cell-based
[5] = tested on: MCF7; assay: Antiproliferative activity against human MCF7 cells assessed as inhibition of cell growth measured after 72 hrs by CCK8 assay; assay type: functional, cell-based; conditions: MCF7, 72 h
[6] = tested on: SK-MEL-2; assay: Antiproliferative activity against human SK-MEL-2 cells assessed as inhibition of cell growth measured after 72 hrs by CCK8 assay; assay type: functional, cell-based; conditions: SK-MEL-2, 72 h
[7] = Cytotoxicity against human C-28/I2 cells measured after 72 hrs by CCK8 assay; assay type: toxicity, cell-based
[8] = tested on: SK-HEP1; assay: Induction of cell cycle arrest in human SK-HEP1 cells assessed as accumulation of cells at G0/G1 phase at 1.25 uM measured after 24 hrs by propidium iodide staining based flow cytometric analysis (reference value: 48.40 %); assay type: functional
[9] = tested on: SK-HEP1; assay: Induction of cell cycle arrest in human SK-HEP1 cells assessed as accumulation of cells at G2/M phase at 2.5 uM measured after 24 hrs by propidium iodide staining based flow cytometric analysis (reference value: 18.32 %); assay type: functional
[10] = tested on: SK-HEP1; assay: Induction of apoptosis in human SK-HEP1 cells assessed as downregulation of B-Raf protein expression by Western blot analysis; assay type: functional, cell-based; conditions: dose 1-5 µM, DDE = dose-dependent effect
[11] = tested on: SK-HEP1; assay: Induction of cell cycle arrest in human SK-HEP1 cells assessed as accumulation of cells at G0/G1 phase at 5 uM measured after 24 hrs by propidium iodide staining based flow cytometric analysis (reference value: 48.40 %); assay type: functional
[12] = tested on: SK-HEP1; assay: Induction of apoptosis in human SK-HEP1 cells assessed as upregulation of activated caspase-3 protein expression at 1 to 2 uM by Western blot analysis; assay type: functional, cell-based; conditions: dose 1-2 µM
[13] = biological target: T1, Mitogen-activated protein kinase; ERK1/ERK2 (Homo sapiens) (UniProt P27361+P28482); assay: Inhibition of intracellular ERK1/2 phosphorylation in human SK-HEP1 cells at 5 uM by Western blot analysis; assay type: cell-based
T1 sequence (P27361 whole entry, looked up): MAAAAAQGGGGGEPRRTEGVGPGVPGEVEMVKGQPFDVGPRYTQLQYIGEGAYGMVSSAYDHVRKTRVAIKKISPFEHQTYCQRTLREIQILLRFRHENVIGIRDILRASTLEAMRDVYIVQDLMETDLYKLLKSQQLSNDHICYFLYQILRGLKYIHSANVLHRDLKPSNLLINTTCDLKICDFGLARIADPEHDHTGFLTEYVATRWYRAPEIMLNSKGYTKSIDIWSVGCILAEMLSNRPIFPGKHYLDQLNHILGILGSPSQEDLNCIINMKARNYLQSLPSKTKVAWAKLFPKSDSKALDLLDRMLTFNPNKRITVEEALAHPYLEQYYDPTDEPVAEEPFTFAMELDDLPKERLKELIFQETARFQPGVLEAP
T1 sequence (P28482 whole entry, looked up): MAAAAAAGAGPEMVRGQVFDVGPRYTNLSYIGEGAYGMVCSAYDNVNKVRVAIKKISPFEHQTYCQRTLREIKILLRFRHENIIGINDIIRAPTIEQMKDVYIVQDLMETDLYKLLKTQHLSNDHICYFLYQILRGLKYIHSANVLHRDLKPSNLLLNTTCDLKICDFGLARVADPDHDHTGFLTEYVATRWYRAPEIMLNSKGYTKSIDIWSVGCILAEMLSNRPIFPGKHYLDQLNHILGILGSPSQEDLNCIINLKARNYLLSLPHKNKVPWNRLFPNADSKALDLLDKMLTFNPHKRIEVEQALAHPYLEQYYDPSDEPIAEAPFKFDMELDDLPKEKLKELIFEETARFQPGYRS

[14] = biological target: T1, Mitogen-activated protein kinase; ERK1/ERK2 (Homo sapiens); assay: Inhibition of intracellular ERK1/2 phosphorylation in human A-375 cells at 5 uM by Western blot analysis; assay type: cell-based
[15] = tested on: SK-HEP1; assay: Inhibition of colony formation in human SK-HEP1 cells assessed as reduction in number of colonies at 0.2 uM measured after 7 days by crystal violet staining based assay; assay type: functional, cell-based; conditions: time 7.0 day
[16] = tested on: SK-HEP1; assay: Induction of apoptosis in human SK-HEP1 cells assessed as downregulation of ERK1/2 protein expression by Western blot analysis; assay type: functional, cell-based; conditions: dose 1-5 µM, DDE = dose-dependent effect
[17] = tested on: SK-HEP1; assay: Antiproliferative activity against human SK-HEP1 cells cultured as 3D spheroids assessed as appearance of crumbled spheroids at 10 uM measured after 120 hrs by fluorescence microscopic analysis; assay type: functional, cell-based
[18] = tested on: SK-HEP1; assay: Induction of cell cycle arrest in human SK-HEP1 cells assessed as accumulation of cells at G0/G1 phase at 2.5 uM measured after 24 hrs by propidium iodide staining based flow cytometric analysis (reference value: 48.40 %); assay type: functional
[19] = tested on: SK-HEP1; assay: Inhibition of cell migration in human SK-HEP1 cells at 2.5 uM measured after 12 to 24 hrs by inverted microscopy based wound healing assay; assay type: functional; conditions: time 12-24 hrs
[20] = tested on: SK-HEP1; assay: Induction of cell cycle arrest in human SK-HEP1 cells assessed as accumulation of cells at S phase at 5 uM measured after 24 hrs by propidium iodide staining based flow cytometric analysis (reference value: 33.08 %); assay type: functional
[21] = tested on: SK-HEP1; assay: Induction of cell cycle arrest in human SK-HEP1 cells assessed as accumulation of cells at G2/M phase at 1.25 uM measured after 24 hrs by propidium iodide staining based flow cytometric analysis (reference value: 18.32 %); assay type: functional
[22] = tested on: SK-HEP1; assay: Induction of cell cycle arrest in human SK-HEP1 cells assessed as accumulation of cells at S phase at 2.5 uM measured after 24 hrs by propidium iodide staining based flow cytometric analysis (reference value: 33.08 %); assay type: functional
[23] = tested on: SK-HEP1; assay: Inhibition of MEK1/2 phosphorylation in human SK-HEP1 cells by Western blot analysis; assay type: cell-based; conditions: dose 1-5 µM, DDE = dose-dependent effect
[24] = tested on: SK-HEP1; assay: Induction of apoptosis in human SK-HEP1 cells assessed as upregulation of activated caspase-9 protein expression at 1 to 2 uM by Western blot analysis; assay type: functional, cell-based; conditions: dose 1-2 µM
[25] = biological target: T1, Mitogen-activated protein kinase; ERK1/ERK2 (Homo sapiens); assay: Inhibition of ERK1/2 phosphorylation in human SK-HEP1 cells by Western blot analysis; assay type: cell-based; conditions: dose 1-5 µM, DDE = dose-dependent effect
[26] = tested on: SK-HEP1; assay: Inhibition of colony formation in human SK-HEP1 cells assessed as reduction in number of colonies at 2 uM measured after 7 days by crystal violet staining based assay; assay type: functional; conditions: SK-HEP1, 168 h, time 7 day
[27] = tested on: A-375; assay: Induction of apoptosis in human A-375 cells assessed as late apoptotic cells at 1.25 to 5 uM measured after 48 hrs by AnnexinV-FITC/propidium iodide staining based flow cytometry analysis (reference value: 1.61 %); assay type: functional; conditions: dose 1.25-5 µM
[28] = tested on: SK-HEP1; assay: Antiproliferative activity against human SK-HEP1 cells cultured as 3D spheroids assessed as appearance of collapsed spheroids at 10 uM measured after 96 hrs by fluorescence microscopic analysis; assay type: functional, cell-based
[29] = tested on: SK-HEP1; assay: Antiproliferative activity against human SK-HEP1 cells cultured as 3D spheroids assessed as appearance of flattened spheroids at 10 uM measured after 48 hrs by fluorescence microscopic analysis; assay type: functional, cell-based
[30] = tested on: SK-HEP1; assay: Induction of ROS production in human SK-HEP1 cells at 1 to 2 uM measured after 24 hrs by DCFH-DA staining based confocal microscopic and flow cytometry analysis; assay type: functional, cell-based; conditions: dose 1-2 µM
[31] = tested on: SK-HEP1; assay: Antiproliferative activity against human SK-HEP1 cells assessed as inhibition of cell growth measured after 72 hrs by CCK8 assay; assay type: functional, cell-based; conditions: SK-HEP1, 72 h
[32] = tested on: SK-HEP1; assay: Induction of apoptosis in human SK-HEP1 cells assessed as downregulation of ERK2 expression at 2.5 uM measured after 48 hrs by fluorescent quantitative PCR analysis relative to control; assay type: functional
[33] = tested on: SK-HEP1; assay: Induction of apoptosis in human SK-HEP1 cells assessed as downregulation of ERK1 expression at 2.5 uM measured after 48 hrs by fluorescent quantitative PCR analysis relative to control; assay type: functional
[34] = tested on: SK-HEP1; assay: Induction of cell cycle arrest in human SK-HEP1 cells assessed as accumulation of cells at S phase at 1.25 uM measured after 24 hrs by propidium iodide staining based flow cytometric analysis (reference value: 33.08 %); assay type: functional
[35] = tested on: SK-HEP1; assay: Induction of apoptosis in human SK-HEP1 cells assessed as late apoptotic cells at 1.25 to 5 uM measured after 48 hrs by AnnexinV-FITC/propidium iodide staining based flow cytometry analysis (reference value: 0.36 %); assay type: functional; conditions: dose 1.25-5 µM
[36] = tested on: SK-HEP1; assay: Induction of cell cycle arrest in human SK-HEP1 cells assessed as accumulation of cells at G2/M phase at 5 uM measured after 24 hrs by propidium iodide staining based flow cytometric analysis (reference value: 18.32 %); assay type: functional

Structure (SMILES): O=c1[nH]c2c(c(O)c1Cc1ccccc1)c(=O)n(-c1ccc(OC(F)(F)F)cc1)c(=O)n2-c1ccc(OC(F)(F)F)cc1
- IC50 [1]: 13.7 µM
- CC50 [2]: 35.9 µM
- IC50 [3]: 24.5 µM
- IC50 [4]: 12.8 µM
- IC50 [5]: 9.98 µM

Structure (SMILES): CN1CCN(c2cc(NCC(=O)Nc3cccc(Cl)c3)c3c(=O)n(C)c(=O)n(C)c3n2)CC1
- IC50 [6]: 4.79 µM
- CC50 at 72 h [7]: > 50 µM
- Activity [8]: 44.1%
- Activity [9]: 19.98%
- Activity [10]: Dde
- Activity [11]: 44.85%
- Activity [12]: Active
- inhibition [13]: Active
- inhibition [14]: Active
- inhibition [15]: Active
- Activity [16]: Dde
- Activity [17]: Active
- Activity [18]: 45.09%
- inhibition [19]: Active
- Activity [20]: 31.23%
- Activity [21]: 21.31%
- Activity [22]: 34.93%
- inhibition [23]: Dde
- Activity [24]: Active
- inhibition [25]: Dde
- IC50 [3]: 5.2 µM
- inhibition at 2 µM [26]: 100%
- IC50 [5]: 3.15 µM
- Activity [27]: 32.6%
- Activity [28]: Active
- Activity [29]: Active
- Activity [30]: Active
- IC50 [31]: 2.04 µM
- Activity [32]: 60%
- Activity [33]: 70%
- Activity [34]: 34.59%
- Activity [35]: 42.4%
- Activity [36]: 23.92%
